Test results taken from patent US20240238218A1, “[…] A […] ACTIVE COMPOUND AND METHOD OF PREPARATION THEREOF” (GW Research Limited, priority 2021, published 2024).

Legend:
[1] = test system: mouse model of generalised seizure (tonic hind limb extensor convulsions); test: Maximal electroshock seizure threshold (MEST) test in the mouse; conditions: 2.5 mg/kg i.p., 30 min post dose
Procedure: The efficacy of the novel resorcinol according to the compound of Formula I was tested in a mouse model of generalised seizure, the maximal electroshock seizure threshold (MEST) test.
(§1) In the MEST test the ability of a drug to alter the seizure threshold current required to induce hind limb tonic extensor convulsions is measured according to an “up and down” method of shock titration (Kimball et al., 1957). An increase in seizure threshold is indicative of anti-convulsant effect.
(§2) The ability of a test compound to alter the stimulus intensity, expressed as current (mA), required to induce the presence of tonic hind limb extensor convulsions, is assessed in the MEST.
(§3) All animals were weighed at the beginning of the study and randomly assigned to treatment groups based on a mean distribution of body weight across groups.
The first animal within a treatment group was given a shock at the expected or estimated CC50 current. For subsequent animals, the current was lowered or raised depending on the convulsions outcome from the preceding animal, in intervals of 5 mA.
(§4) Data generated from each treatment group were used to calculate the CC50±SEM values for the treatment group.
Vehicle: (5% ethanol, 5% Kolliphor® EL, 90% Saline) was prepared as follows: 2 mL of ethanol, 2 mL of Kolliphor® EL were warmed to 60° C., in 36 mL of saline (1:1:18).
The test compound, described herein as Compound I, is as shown as Formula I. Test compound was administered at 1, 5, 20, 50, 100 and 200 mg/kg (i.p.) in a 1:2:17 ethanol:solutol:0.9% saline formulation.
(§5) The data for each treatment group were recorded as the number of +'s and 0's at each current level employed and this information is then used to calculate the CC50 value (current required for 50% of the animals to show seizure behaviour)±standard error.
(§6) Test compound effects were also calculated as percentage change in CC50 from the vehicle control group.
(§7) Significant difference between drug-treated animals and controls were assessed according to Litchfield and Wilcoxon (1949).

[2] = test system: mouse model of generalised seizure (tonic hind limb extensor convulsions); test: mini-MEST (maximal electroshock seizure threshold, minimal sample sizes) test in the mouse; conditions: 2.5 mg/kg i.p., 30 min post dose
Procedure: The maximal electroshock seizure threshold (MEST) test is widely utilized preclinically to evaluate pro- or anti-convulsant properties of test compounds (Loscher et al., 1991).
as §1, §2, §3
The first animal within a treatment group was given a shock at the expected or estimated CC50 current. For subsequent animals, the current was lowered or raised depending on the convulsions outcome from the preceding animal in log scale intervals.
as §4
Vehicle: (5% ethanol, 10% solutol in 85% Saline) was prepared as follows: 1 mL of ethanol, 2 mL of solutol were warmed to 60° C., in 17 mL of saline (1:2:17).
The test compound, described herein as Compound I, is as shown as Formula I. Test compound was administered at 50 mg/kg (i.p.) in a 1:2:17 ethanol:solutol:0.9% saline formulation.
as §5, §6, §7

RjOrl: Swiss mice = test: Mouse 6 Hz (44 mA) psychomotor seizure test; assay type: in vivo; conditions: 300 mg/kg i.p.
Description: The 6 Hz Psychomotor Test, which detects anticonvulsant activity, follows that described by Brown et al. (J. Pharmacol. Exp. Ther. 107, 273-283, 1953).
Male RjOrl: Swiss mice, 5 weeks old, weighing 28-38 g at the beginning of the experiment. Animals were acclimatized to the test facility for at least 5 days after delivery and randomly housed in groups of 3-4 in macrolon cages on wood litter with free access to food and water.
Before transcorneal stimulation, a drop of tetracaine solution (2%) was applied on each eye of the mouse for local anesthesia. Between 1-10 minutes later, at the pre-treatment time specified for the test compound, the mice were administered a rectangular current (44 mA, rectangular pulse: 0.2 ms pulse width, 3 s duration, 6 Hz) via corneal electrodes connected to a constant current shock generator.
The number of seizures as reflected by forelimb clonus were recorded immediately after current administration. Forelimb clonus was scored as absent (0=no forelimb clonus), mild (1=clonus with one forelimb) and strong (2=clonus with both forelimbs).
[…] The experimenters were blinded to the treatment. The cages were randomly assigned to a treatment code, each designating one treatment group.
Compound I was administered intraperitoneally at 20 and 50 mg/kg, 30 minutes before the test, and at 100 and 200 mg/kg, 60 minutes before the test and were compared with the vehicle control (5% ethanol, 10% […], 85% physiological saline).
Valproate (300 mg/kg i.p.), administered 30 minutes before the test, was used as reference substance and was compared with the vehicle control (5% ethanol, 10% Kolliphor HS15, 85% physiological saline).
(§8) Test compound: Compound I dissolved in 5% ethanol, 10% Kolliphor HS15, 85% physiological saline.
(§9) Vehicle control: 5% ethanol, 10% Kolliphor HS15, 85% physiological saline.
Reference: Valproate (300 mg/kg), dissolved in 5% ethanol, 10% Kolliphor HS15, 85% physiological saline.
Data were assumed to be non-normally distributed based on validation data, therefore non-parametric tests were utilized. Quantitative data (scores) with the test substance were analyzed by comparing treated groups with the corresponding vehicle control using Kruskal-Wallis test with Dunn's multiple comparisons test when the Kruskal-Wallis Test was significant. Quantitative data with the reference substance was analysed using Mann-Whitney U test.

DBA/2 mice = test: DBA/2 mouse audiogenic seizure test; assay type: in vivo; conditions: 180 mg/kg i.p.
Description: The DBA/2 audiogenic seizure test, which detects anticonvulsant activity, follows that described by Dürmüller et al. (NeuroReport, vol. 4, no. 6, pages 683-686, 1993).
60 male DBA/2 mice (3-4 weeks old) were included in the experiment (weight range 8-11 g at the beginning of the experiment). Animals were acclimatized to the test facility for 1 day after delivery and randomly housed in groups of 5 in macrolon cages on wood litter with free access to food and water.
Mice were individually transferred (at 3-5 minutes intervals) from the preparation room into an adjacent experimental room and body temperature was measured using a rectal thermometer. Immediately after, they were placed in a Plexiglas jar (Diameter=40 cm; Height=35 cm) mounted with an electric bell. Upon activating the bell, the occurrences and latencies to wild running fits, clonic and tonic seizures were measured. Deaths were also recorded. The bell was activated until a tonic seizure occured or for a maximum of 60 seconds.
The experiment included 6 groups (10 mice were studied per group). Experimenters were blinded to the treatment groups.
The test substance was evaluated at 4 doses, administered i.p. (10 mL/kg) 30 or 60 minutes before the test, and compared with a vehicle control group. Doses and pre-treatment times were based on previous pharmacokinetic data.
as §8, §9
Reference: Valproate (180 mg/kg), dissolved in 5% ethanol, 10% Kolliphor HS15, 85% physiological saline.
Quantitative data (latencies) with the test substance were analyzed by comparing treated groups with vehicle control using Kruskal-Wallis test followed by Dunn's multiple comparisons test. Quantitative data with the reference substance were analyzed using Mann-Whitney U test.
Quantal data (frequencies) were analyzed by comparing treated groups with vehicle control using Fisher's Exact Probability tests.

[3] = 30 min before the test, bell maximum 60 seconds
[4] = 30 min before the test, listed as valproate

With CN1C(=O)CN=C(c2ccccc2)c2cc(Cl)ccc21 [Diazepam, diazepam, reference compound] the “% change from vehicle (CC50)” value [1] was 449% and the “% change from vehicle (CC50)” value [2] was 279%.

CCCC(CCC)C(=O)O [Valproate, reference compound] was tested, and the “Slight sedation (mice affected)” value (RjOrl: Swiss mice) was “One mouse out of the 15 tested”, the “Forelimb clonus, Compared with Vehicle B (i.p.) %” value (RjOrl: Swiss mice; 30 minutes before the test) was −88% and the “Forelimb clonus, Compared with Vehicle B (i.p.) %” value (RjOrl: Swiss mice; 30 minutes before the test, listed as valproate) was −88%. The “Forelimb clonus (mean ± s.e.m.)” value (RjOrl: Swiss mice; 30 minutes before the test, score 0-2) was 0.1 ± 0.1, the Adverse signs (DBA/2 mice) was “No adverse signs were noted” and the “Clonic convulsion, Presence, %” value (DBA/2 mice; 30 min before the test) was 0%. For the same compound, the “Clonic convulsion, Presence, Compared with Vehicle (i.p.) %” value (DBA/2 mice; 30 min before the test) was −100%, the “Clonic convulsion, Presence, Total” value (DBA/2 mice; 30 min before the test) was 0/10 and the “Death, Presence, %” value (DBA/2 mice; 30 min before the test) was 0%. For the same compound, the “Death, Presence, Compared with Vehicle (i.p.) %” value (DBA/2 mice; 30 min before the test) was −100%, the “Death, Presence, Total” value (DBA/2 mice; 30 min before the test) was 0/10 and the “Tonic extension, Presence, %” value (DBA/2 mice; 30 min before the test) was 0%. For the same compound, the “Tonic extension, Presence, Compared with Vehicle (i.p.) %” value (DBA/2 mice; 30 min before the test) was −100%, the “Tonic extension, Presence, Total” value (DBA/2 mice; 30 min before the test) was 0/10 and the “Wild running, Presence, %” value (DBA/2 mice; 30 min before the test) was 0%. For the same compound, the “Wild running, Presence, Compared with Vehicle (i.p.) %” value (DBA/2 mice; 30 min before the test) was −100%, the “Wild running, Presence, Total” value (DBA/2 mice; 30 min before the test) was 0/10 and the “Clonic convulsion, Latency (s) Median” value (DBA/2 mice; [3]) was 60.0 s. For the same compound, the “Tonic extension, Latency (s) Median” value (DBA/2 mice; [3]) was 60.0 s, the “Wild running, Latency (s) Median” value (DBA/2 mice; [3]) was 60.0 s and the “Clonic convulsion, Presence, Compared with Vehicle (i.p.) %” value (DBA/2 mice; [4]) was −100%. The “Tonic extension, Presence, Compared with Vehicle (i.p.) %” value (DBA/2 mice; [4]) was −100% and the “Wild running, Presence, Compared with Vehicle (i.p.) %” value (DBA/2 mice; [4]) was −100%.
